Results as given in patent US8703698B2, “Compositions and methods for treating atherosclerosis” (The University of Chicago, priority 2003, dated 2014).

Experiments:
J774 macrophages = experiment: [3H]cholesterol efflux from cholesterol-loaded J774 macrophages in tissue culture; type: cell-based, mouse; details: for cholesterol efflux compared to equimolar liposomes containing full length murine SAA2.1 protein (FIG. 10): cholesterol-laden J774 cells, equimolar concentrations; for cholesterol efflux as compared to controls (FIGS. 3A and 3B) / dose-response of cholesterol efflux (FIGS. 3A and 3B): liposomes; for cholesterol efflux as compared to controls (FIGS. 3A and 3B): peptide at 1 μM (alone printed 1 μl), cholesterol-laden murine macrophages; for dose-response of cholesterol efflux (FIGS. 3A and 3B): 0.05, 0.1, 0.5, 1.0, 2.5 and 5.0 μM; for total cellular [3H]cholesterol released into the medium: pre-incubated 4 hours with liposomes containing 0.5 μM peptide, then cultured in presence of HDL (50 μg/mL)
ApoE knockout mice = experiment: Regression of aortic lesions in ApoE knockout mice on atherogenic diet; type: in vivo; details: for aortic lesions, area stained with Oil Red O, versus high fat diet controls (FIGS. 7A and 7B): liposomes intravenously once every four days for two weeks, 6 mg/kg, after four weeks atherogenic diet; for color of livers versus untreated mice: preliminary examination, ApoE knockout mice on atherogenic diet
Excerpt: In regression experiments, ApoE knockout mice were placed on an atherogenic diet as described in Example 11 for four weeks, following which they were divided into two groups. One group continued on the diet for an additional two weeks. The other group continued on the diet for the same period but also received once every four days liposomes containing a peptide corresponding to amino acids 1-20 of murine SAA2.1 (SEQ ID NO:1; Group B of FIG. 7A and Group hf+p1 of FIG. 7B) or liposomes containing a peptide corresponding to amino acids 74-103 of murine SAA2.1 (SEQ ID NO:4; Group D of FIG. 7A and Group hf+p4 of FIG. 7B). The control group received high fat diet alone with no liposomes (Group A of FIG. 7A and Group high fat of FIG. 7B). An additional group was placed on a normal mouse chow diet (Group C of FIG. 7A and Group low fat of FIG. 7B). A further additional Group receiving liposomes containing a peptide corresponding to amino acids 1-20 of murine SAA2.1 (SEQ ID NO:1) and liposomes containing a peptide corresponding to amino acids 74-103 of murine SAA2.1 (SEQ ID NO:4) is depicted in FIG. 7B and is referred to as hf+p1+p4. FIG. 7B is inclusive of data present in FIG. 7A as well as data from a subsequent experiment performed under the same conditions. After the two weeks, the mice were killed and their aortas were dissected and stained with Oil Red O. Data of FIG. 7A depict the area stained with Oil Red O indicative of the actual lipid positive area as a percentage of the total aortic area viewed. Data of FIG. 7B depict the area stained with Oil Red O as a percentage relative to the high fat diet group (100%).
The efficacy of SAA2.1 peptides in regression of atherosclerosis was examined. The peptides tested included SEQ ID NO:1 and SEQ ID NO:4. The peptides were injected intravenously once every four (4) days during atherogenic induction for a period of 2 weeks (i.e. four doses at 6 mg/kg).
To determine if these peptides cause regression of atherosclerosis, the animals were placed on an atherogenic diet (Paigen's Atherogenic Rodent Diet: Purina 5015 with cocoa butter, cholesterol and cholic acid (CI3002, Research Diets, Inc.)) for […], following which they were divided into two groups of 5 animals each. One group continued on the diet for an additional two weeks. […]
To assess the effects of the peptides on aortic atherosclerosis, at the termination of the experiment, the aorta was removed from the animals and opened longitudinally. The endothelial surface was stained with Oil Red O and the area occupied by lipid was measured by image analysis. Furthermore, histological sections of aorta were prepared for microscopic analysis and total lipids were isolated to measure the quantity of cholesterol per wet weight of tissue. […]

[1] = test system: cholesterol ester hydrolase; experiment: Rate of hydrolysis of cholesteryl ester in cholesterol-laden J774 cells (cholesterol ester hydrolase activity); type: cell-based, murine

DTIADQEANRHGRSGKDPNYYRPPGLPDKY [SEQ ID NO:4, synthetic peptide, residues 74-103 of murine SAA2.1]
cholesterol efflux compared to equimolar liposomes containing full length murine SAA2.1 protein (FIG. 10) (J774 macrophages): statistically significant greater cholesterol efflux
cholesterol efflux as compared to controls (FIGS. 3A and 3B) (J774 macrophages): approximately 200%
dose-response of cholesterol efflux (FIGS. 3A and 3B) (J774 macrophages): increased with increasing amounts of each peptide alone
total cellular [3H]cholesterol released into the medium (J774 macrophages): 46.7 ± 3.1%
rate of [3H]cholesterol efflux into medium containing HDL (J774 macrophages; pre-incubation with liposomes containing 0.5 μM peptide, HDL as acceptor): significant increase in the rate
aortic lesions, area stained with Oil Red O, versus high fat diet controls (FIGS. 7A and 7B) (ApoE knockout mice): showed regression of aortic lesions
color of livers versus untreated mice (ApoE knockout mice): more normal reddish color
increase in cholesterol ester hydrolase activity ([1]; liposomes containing 0.5 μl synthetic peptide, cholesterol-laden J774 cells, Sandoz 58-035 present, 0 to 24 hours): 3 fold

GFFSFVHEAFQGAGDMWRAY [SEQ ID NO:1, synthetic peptide, residues 1-20 of murine SAA2.1]
cholesterol efflux compared to equimolar liposomes containing full length murine SAA2.1 protein (FIG. 10) (J774 macrophages): statistically significant greater cholesterol efflux
cholesterol efflux as compared to controls (FIGS. 3A and 3B) (J774 macrophages): approximately 200%
dose-response of cholesterol efflux (FIGS. 3A and 3B) (J774 macrophages): increased with increasing amounts of each peptide alone
total cellular [3H]cholesterol released into the medium (J774 macrophages): 60.6 ± 3.6%
aortic lesions, area stained with Oil Red O, versus high fat diet controls (FIGS. 7A and 7B) (ApoE knockout mice): showed regression of aortic lesions
color of livers versus untreated mice (ApoE knockout mice): more normal reddish color
rate of hydrolysis of [14C]-labeled cholesteryl oleate versus protein-free liposomes ([1]; liposomes containing 0.5 μl synthetic peptide, J774 cells, Sandoz 58-035 present): no significant differences

B1: GFFSFVHEAFQGAGDMWRAYTDMKEANWKNSDKYFHARGNYDAAQRGPGGVWAAEKISD GREAFQEFFGRGHEDTIADQEANRHGRSGKDPNYYRPPGLPDKY (protein, listed as Mus musculis)
chain: GFFSFVHEAFQGAGDMWRAYTDMKEANWKNSDKYFHARGNYDAAQRGPGGVWAAEKISDGREAFQEFFGRGHEDTIADQEANRHGRSGKDPNYYRPPGLPDKY
notes: full length murine serum amyloid A isoform 2.1 purified from acute phase plasma
cholesterol ester hydrolase activity in intact cholesterol-laden macrophages ([1]; lipoproteins or protein liposomes, tissue culture): enhancement of cholesterol ester hydrolase activity
